Measured values from patent US6962943B2, “Gabusectin derivatives, processes for preparing them and their use” (Aventis Pharma Deutschland GmbH, priority 2002, dated 2005).
In brackets after ≈: the same amount, converted by molar mass.

Columns and labels:
[1] = Stability in solution (physicochemical properties); conditions: for Stability in strongly acidic and strongly alkaline solution: strongly acidic and strongly alkali(ne) solution
Excerpt: (§1) Stable in neutral and mildly acidic medium but unstable in strongly acidic and strongly alkali solution. […] Stable in neutral and mildly acidic medium but unstable in strongly acidic and strongly alkaline solution.

Staphylococcus aureus = assay: Agar diffusion test; assay type: cell-based; conditions: 37° C., 16 hours
Method: Agar plates containing 2 ml of Staphylococcus aureus inoculum in 200 ml of agar solution were prepared. gabusectin was applied, in a 10 mM solution, to 6 mm-diameter paper disks, which were then laid on the agar plate. The inoculated Staphylococcus plates were incubated at 37° C. for 16 hours. Inhibition halos having the following diameters (mm) were then observed: Agar plates containing 2 ml of Staphylococcus aureus inoculum in 200 ml of agar solution were prepared. gabusectin methyl ester is applied, in a 10 mM solution, to 6 mm-diameter paper disks, which are then laid on the agar plate. The inoculated Staphylococcus plates were incubated at 37° C. for 16 hours. Inhibition halos having the following diameters (mm) were then observed.

[2] = Solubility (appearance/physicochemical properties)
Excerpt: as §1

Tolerability = conditions: at and above its effective concentration
Excerpt: Gabusectin is well-tolerated at and above its effective concentration.

S. aureus (Exp54146) = assay: In-vitro antibacterial activity, serial dilution test; assay type: cell-based; conditions: Staphylococcus aureus
Excerpt: (§2) Table 1 summarizes the minimum inhibitory concentrations (MICs) of gabusectin, by way of example.

S. pyogenes (A561) = assay: as above; assay type: cell-based; conditions: Streptococcus pyogenes
Excerpt: as §2

S. aureus (SG511) = assay: as above; assay type: cell-based; conditions: Staphylococcus aureus
Excerpt: as §2

E. faecium (M78L) = assay: as above; assay type: cell-based; conditions: Enterococcus faecium, read-out: MIC values
Excerpt: as §2

[3] = 10 μL of 10 mM solution on 6 mm paper disk
[4] = 20 μL of 10 mM solution on 6 mm paper disk
[5] = 40 μL of 10 mM solution on 6 mm paper disk

Compound: C/C=C/[C@H]1C(C)=C[C@@]2(C)C[C@H](C)CC[C@H]2[C@]1(C)/C(O)=C1\C(=O)C(CCC(=O)OC)N(C)C1=O (stereo partly shown) [gabusectin methyl ester]
- Stability in neutral and mildly acidic medium [1]: Stable
- Stability in strongly acidic and strongly alkaline solution [1]: unstable
- Inhibition halo size (Staphylococcus aureus; [3]): 0 mm
- Inhibition halo size (Staphylococcus aureus; [4]): 7 mm
- Inhibition halo size (Staphylococcus aureus; [5]): 8 mm
- Solubility in medium-polar and polar organic solvents [2]: soluble
- Solubility in water [2]: not particularly soluble

Compound: C/C=C/C1C(C)=CC2(C)CC(C)CCC2C1(C)/C(O)=C1\C(=O)C(CCC(=O)O)N(C)C1=O (stereo not shown) [gabusectin]
- Stability in neutral and mildly acidic medium [1]: Stable
- Stability in strongly acidic and strongly alkaline solution [1]: unstable
- Tolerability (Tolerability): well-tolerated
- MIC (S. aureus (Exp54146)): 20 µg/mL (≈ 45.1 µM)
- MIC (S. pyogenes (A561)): 20 µg/mL (≈ 45.1 µM)
- MIC (S. aureus (SG511)): 5 µg/mL (≈ 11.3 µM)
- MIC (E. faecium (M78L)): 40 µg/mL (≈ 90.2 µM)
- Inhibition halo size (Staphylococcus aureus; [3]): 8 mm
- Inhibition halo size (Staphylococcus aureus; [4]): 14 mm
- Inhibition halo size (Staphylococcus aureus; [5]): 17 mm
- Solubility in medium-polar and polar organic solvents [2]: soluble
- Solubility in water [2]: not particularly soluble
